Measured values published in patent publication US8937065B2, “Compositions and methods for modulating a kinase” (Clevexel Pharma, priority 2011, dated 2015).
Where two headings read alike, the source gives them in different places.

Tests used:
[1] = test system: Interleukin 4/STAT6-STAT6-bla RA1; assay: Interleukin 4/STAT6-STAT6-bla RA1 inhibition (IL-4-stimulated STAT6 activity in Ramos cells); assay type: cell-based; details: Homo sapiens; Ramos cells, IL4 stimulated; read-out: IC50 B cells mechanism-based: Ramos cells IL4 stimulated STAT6 activity
Method: The inhibition of Interleukin 4/STAT6-STAT6-bla RA1 (activated by IL-4) by several compounds was determined using the Screening Protocol and Assay Conditions (Invitrogen, Madison, Wis.). The assays were performed according to manufacturer's protocols. Example 4, Cell-line Specific Protocols IL-4-stimulated STAT6 activity in Ramos cells for details.
Mechanism-based inhibition assays using compound 7A (Table 1) were performed using GeneBLAzer® Technology (Invitrogen Corporation), according to manufacturer specifications. […] In this state, excitation of the coumarin results in fluorescence resonance energy transfer to the fluorescein moiety and emission of green light. […] Excitation of the coumarin in the presence of Beta-lactamase activity results in a blue fluorescence signal. […]
An activator assay screen was run to obtain the EC80 concentration of the known activator to add in step 3. • 1. […] 4 μL of the EC80 concentration of activator, as determined in an Activator assay, was added to all wells containing compound and known inhibitor to bring the final assay volume to 40 μL. • 4. […] The assay plate was read on a fluorescence plate reader (Tecan Safire) and the data is analyzed. […]
STAT6-bla RA1 cells were thawed. […] The plate was read on a fluorescence plate reader.

Daudi cells = assay: Daudi CTG assay (Daudi proliferation, 72 hr, Cell Titer Glo); assay type: cell-based; details: Homo sapiens
Method: The compounds of the invention were tested on Daudi proliferation according to the procedure in Example 4 (for Daudi cells): Proliferation of RS4; 11, Ramos, Namalwa, RL, Molt-4 and Daudi cells. The compounds of the invention were tested on Daudi proliferation (72 hr), 3 fold dilution, and 9 points in duplicates. The top concentration for compounds of the invention was 10 uM; reference compound 7A top concentration was 10 uM; and Paclitaxel was 500 nM. Cell viability was determined using the Cell Titer Glo (CTG) reagent and detected by EnVision. EC50s were calculated by Prism 5.
The CellTiter-Glo™ Luminescent Cell Viability Assay uses ATP, a required co-factor of the luciferase reaction, as an indicator of metabolically active cells. The enzyme luciferase acts on luciferin in the presence of Mg^2+and ATP to produce oxyluciferin and to release energy in the form of luminescence. Since the luciferase reaction requires ATP, the luminescence produced is proportional to the amount of ATP present, an indicator of cellular metabolic activity.

hLM T½ (stability) = assay type: in vitro ADME; details: human, liver microsomes

Which IC50 [1] does the source give for O=C(CN1CCOCC1)Nc1cccc(-c2nc(-c3c[nH]c(C(=O)N4CCCC4)c3)cs2)c1 [7A, 2-morpholino-N-(3-(4-(5-(pyrrolidine-1-carbonyl)-1H-pyrrol-3-yl)thiazol-2-yl)phenyl)acetamide] here?
Its IC50 is 32 nM.

And the IC50 (Daudi cells; Daudi, read-out: Daudi CTG assay IC50, historical data)?
The IC50 was 122 nM.

What about the IC50 (Daudi cells; Daudi proliferation 72 hr, control compounds, read-out: Daudi CTG assay control IC50) of the same compound?
Its IC50 is 102 nM.

What about the half-life (hLM T½ (stability)) of the same compound?
Its half-life is 36 min.
